Test results reported in US8404665B2, “In vivo use of glutathione S-transferase activated nitric oxide donors” (University of Utah Research Foundation, priority 2002, dated 2013).

Columns and labels:
hGSTM1-1 = target: T1, hGSTM1-1 (Homo sapiens, UniProt P09488); assay: GST-catalysed GSH conjugation of JS-K and NO release; type: biochemical
T1 construct: purchased Panvera (Madison, Wis.)
T1 sequence (P09488 2-218): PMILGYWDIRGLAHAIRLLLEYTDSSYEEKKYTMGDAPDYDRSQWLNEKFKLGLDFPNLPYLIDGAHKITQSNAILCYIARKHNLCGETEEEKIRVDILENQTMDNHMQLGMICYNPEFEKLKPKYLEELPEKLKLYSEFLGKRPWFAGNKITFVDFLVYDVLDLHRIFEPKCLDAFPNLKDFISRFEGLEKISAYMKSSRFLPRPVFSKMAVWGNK
Method: (§1) Determination of Specific Activity of Human GSTs Toward JS-K. Purified preparations of recombinant hGSTA1-1, hGSTM1-1 and hGSTP1-1 were obtained from Panvera (Madison, Wis.). The activity of human GST toward CDNB was determined, as described by Habig et al. (Habig, W. H. et al. (1974) J. Biol. Chem. 249: 7130-7139), prior to activity measurements with JS-K to ensure that the enzyme preparations were catalytically active. For activity measurement toward JS-K, the reaction mixture in a final volume of 1 ml contained 100 mM potassium phosphate buffer (pH 6.5), 1 mM GSH, 0.045 mM JS-K, and an appropriate amount of human GST isoenzyme protein. The reaction was started by the addition of JS-K, and the rate of reaction was monitored by measuring decrease in absorbance of JS-K at 298 nm due to its utilization during reaction with GSH. The specific activity toward JS-K was calculated using an extinction coefficient of 18 mM^−1 cm^−1 at 298 nm.
(§2) Measurement of NO Release. Chemiluminescence detection and quantification of NO evolving from the reactions of JS-K were conducted using an NO-specific Thermal Energy Analyzer (Model 502A, Thermedics, Analytical Instrument Division, Waltham, Mass.) essentially as previously described (Keefer, L. K. et al. (1996) Methods Enzymol. 268: 281-293). Briefly, pH 7.4 phosphate buffer containing 1 mM GSH was sparged with inert gas until a steady detector response was established. Where indicated, GSTs were added to a final concentration of 1.67 ug of enzyme/ml. The NO release profile was followed at 37° C. for 45 min after injecting JS-K at a final concentration of 133 nM to start the reaction. The resulting curve was integrated to quantify the amount of NO released/mole of compound.

hGSTP1-1 = target: T2, hGSTP1-1 (Homo sapiens, UniProt P09211); assay: as above; type: biochemical
T2 construct: purchased Panvera (Madison, Wis.)
T2 sequence (P09211 2-210 limits assumed): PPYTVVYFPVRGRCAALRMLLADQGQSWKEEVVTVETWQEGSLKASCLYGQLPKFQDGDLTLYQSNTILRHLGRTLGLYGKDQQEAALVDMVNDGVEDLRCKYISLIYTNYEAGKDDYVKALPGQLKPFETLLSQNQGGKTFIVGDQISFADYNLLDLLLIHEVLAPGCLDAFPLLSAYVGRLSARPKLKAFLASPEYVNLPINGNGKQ
Method: as §1, §2

hGSTA1-1 = target: T3, hGSTA1-1 (Homo sapiens, UniProt P08263); assay: as above; type: biochemical
T3 sequence (P08263 1-222): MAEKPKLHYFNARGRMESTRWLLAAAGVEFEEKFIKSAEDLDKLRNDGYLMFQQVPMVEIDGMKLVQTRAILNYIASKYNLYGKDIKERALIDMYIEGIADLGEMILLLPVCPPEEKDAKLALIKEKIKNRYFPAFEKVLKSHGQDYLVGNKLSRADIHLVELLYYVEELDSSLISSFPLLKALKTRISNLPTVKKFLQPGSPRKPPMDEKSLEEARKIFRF
Method: as §1, §2

[1] = Reactivity of JS-K with GSH (HPLC-MS, pseudo-first order kinetics); type: physicochemical; settings: 37° C.
Method: Chromatography and Mass Spectrometry. High Performance Liquid Chromatography (HPLC) separations were carried out with a Phenomenex Luna 5 u C18(2) column (Torrance, Calif.) using a gradient of acetonitrile:water (each containing 0.1% formic acid) at a flow rate of 1 ml/min (% acetonitrile: 25% for 0-5 min followed by a linear program to 70% at 15 min).
HPLC-Mass Spectrometry (MS) studies were performed on an Agilent Capillary Series 1100 LC/MSD Ion Trap mass spectrometer with electrospray ionization in the positive ion mode (CITY, STATE). Separations were effected as above, except that the flow rate was 15 ul/min and the gradient was 10% acetonitrile for 0-5 min followed by a linear program to 70% at 15 min.
The diazeniumdiolate ion appears to resemble chloride as a leaving group in SNAr reactions (Saavedra, J. E. et al. (2001) J. Org. Chem. 66: 3090-3098). Since 1-chloro-2,4-dinitrobenzene is believed to react with GSH, it was anticipated that JS-K would be similarly converted to DNP-SG. This was indicated by HPLC-MS where there appeared to be an 85% conversion of JS-K to DNP-SG within a 30-min incubation period at 37° C. in pH 7.4 phosphate buffer. Similar results appeared in a RPMI-1640 cell culture medium. Pseudo-first order kinetic plots for the reaction of GSH with JS-K in 0.1 M phosphate buffer (pH 7.4) were obtained with GSH (1-5 mM) in large excess of the substrate. Excellent first-order behavior was observed over several half-lives, and measured first-order rate constants appeared to show a linear dependence on [GSH]. The slope and y-intercept of the line yielded values for the second-order [k2=(1.02±0.04) M^−1 s^−1] and first order [k1=(4±12)×10^−5 s^−1] rate constants for the reactions of JS-K with GSH and water, respectively, at 37° C. in 0.1 M phosphate buffer, pH 7.4. The ultraviolet spectral changes accompanying the reaction in a second cell culture medium (Dulbecco's Modified Eagle's Medium) appeared to confirm the above stated kinetic rate constants.

[2] = system: bacterial, viral, fungal or parasitic infection; assay: Treatment of bacterial, viral, fungal or parasitic infection in an individual; type: in vivo; settings: therapeutically effective amount
Method: An individual with a bacterial, viral, fungal or parasitic infection is administered a therapeutically effective amount of JS-K to treat such infection.

CCOC(=O)N1CCN(/[N+]([O-])=N/Oc2ccc([N+](=O)[O-])cc2[N+](=O)[O-])CC1 [JS-K, O^2-(2,4-dinitrophenyl) 1-[(4-ethoxycarbonyl)piperazin-1-yl]diazen-1-ium-1,2-diolate]
catalysis of JS-K conjugation (hGSTM1-1): much superior to hGSTP1-1
catalysis of NO release from JS-K with GSH (hGSTP1-1; hGSTP1-1): only weakly
activity for GSH conjugation of JS-K (hGSTP1-1; recombinant hGSTP1-1): much less active than hGSTA1-1 or hGSTM1-1
effect of JS-K exposure on enzyme's ability to catalyze CDNB's conjugation with GSH (hGSTP1-1; up to 80 uM JS-K): unfettered ability
catalysis of JS-K conjugation (hGSTA1-1): much superior to hGSTP1-1
first order rate constant k1, reaction with water (y-intercept) ([1]; 0.1 M phosphate buffer, pH 7.4): (4±12)×10^−5 s^−1
second-order rate constant k2, reaction with GSH ([1]; 0.1 M phosphate buffer, pH 7.4): 1.02 ± 0.04 M⁻¹ s⁻¹
conversion of JS-K to DNP-SG ([1]; within 30-min incubation, pH 7.4 phosphate buffer): 85%
effect on infection [2]: causes elimination of such infection
